Data as given in paper PMC8949129, “Unique Phenanthrenes from Juncus ensifolius and Their Antiproliferative and Synergistic Effects with the Conventional Anticancer Agent Doxorubicin against Human Cancer Cell Lines” (Pharmaceutics, 2022).
Read-outs that look alike come from different tables or passages of the source.

How the values were obtained:
[1] = test system: COLO 205 doxorubicin-sensitive colonic adenocarcinoma cells; test: Antiproliferative MTT assay, COLO 205; assay type: cell-based, human; settings: for IC50: MTT, 72 h, four parallel measurements, read-out: IC50 (µM) ± SD COLO 205; for SI MRC-5/COLO 205: selectivity index: IC50 in non-tumour cells / IC50 in cancer cells
Experimental: (§1) The human colon adenocarcinoma cells (COLO 205 sensitive and the resistant COLO 320/MDR-LRP expressing P-gp), namely, ATCC-CCL-220.1 (COLO 320) and CCL-222 (COLO 205) were cultured in RPMI 1640 medium supplemented with 10% heat-inactivated fetal bovine serum, 2 mM L-glutamine, 1 mM Na pyruvate, and 100 mM HEPES. HeLa (ATCC® CCL-2™) human cervix carcinoma cells, and MRC-5 (ATCC® CCL-171) human embryonal lung fibroblast cells were cultured in Eagle’s minimal essential medium (EMEM, containing 4.5 g/L glucose) supplemented with a non-essential amino acid mixture, a selection of vitamins, and 10% heat-inactivated fetal bovine serum. The cell lines were detached with 0.25% trypsin and 0.02% EDTA for 5 min at 37 °C.
(§2) In the study, human colonic adenocarcinoma cell lines (doxorubicin-sensitive COLO 205 and multidrug resistant COLO 320 colonic adenocarcinoma cells), HeLa human cervix carcinoma cells and the MRC-5 non-cancerous human embryonic lung fibroblast cell line were used to determine the effect of the compounds on cell growth. The effects of increasing concentrations of compounds on cell growth were tested in 96-well flat-bottomed microtiter plates. […] The compounds were diluted in a volume of 100 μL of the medium. The adherent cells were cultured in 96-well flat-bottomed microtiter plates using EMEM supplemented with 10% heat-inactivated fetal bovine serum. The density of the cells was adjusted to 6 × 10^3 cells in 100 µL per well, the cells were seeded prior to the assay for 24 h at 37 °C, with 5% CO2, and then the medium was removed from the plates, and fresh medium (100 µL per well) was added to the cells. The effects of increasing concentrations of compounds on cell proliferation were tested in 96-well flat-bottomed microtiter plates. The compounds were diluted in the appropriate medium; the dilutions of compounds were performed in separate plates and then added to the cells. The starting concentration of the compounds was 100 µM, and two-fold serial dilution was performed (concentration range: 100–0.19 µM). The culture plates were incubated at 37 °C for 72 h; at the end of the incubation period, 20 µL of MTT (thiazolyl blue tetrazolium bromide, Sigma) solution (from a stock solution of 5 mg/mL) was added to each well. After incubation at 37 °C for 4 h, 100 µL of sodium dodecyl sulfate (SDS) (Sigma) solution (10% in 0.01 M HCI) was added to each well, and the plates were further incubated at 37 °C overnight. Cell growth was determined by measuring the optical density (OD) at 540/630 nm, with a Multiscan EX ELISA reader (Thermo Labsystems, Cheshire, WA, USA). Inhibition of cell growth (expressed as IC50: inhibitory concentration that reduces the growth of the cells exposed to the tested compounds by 50%) was determined from the sigmoid curve where 100 − ((ODsample − ODmedium control)/(ODcell control − ODmedium control)) × 100 was plotted against the logarithm of the compound concentrations. Curves were fitted by Prism5 software (GraphPad Software Inc., San Diego, CA, USA) from four parallel experiments for each cell line. Results are expressed in terms of IC50, defined as the inhibitory dose that reduces the proliferation of the cells exposed to the tested compounds by 50% [20].

[2] = test system: HeLa human cervix carcinoma cells; test: Antiproliferative MTT assay, HeLa; assay type: cell-based; settings: for IC50: MTT, 72 h, four parallel measurements, read-out: IC50 (µM) ± SD HeLa; for SI MRC-5/HeLa: selectivity index: IC50 in non-tumour cells / IC50 in cancer cells
Experimental: as §1, §2

[3] = test system: MRC-5 human embryonal lung fibroblast cells; test: Antiproliferative MTT assay, MRC-5 non-tumor cells; assay type: cell-based; settings: four parallel measurements, read-out: IC50 (µM) ± SD MRC-5
Experimental: as §1, §2

HeLa cells [4] = test: Drug combination assay with doxorubicin (MTT, CompuSyn); assay type: cell-based, human; parameters: key to CI (combination index): CI <1 synergy, ~1 additivity, >1 antagonism; settings: for Interaction: interaction type with doxorubicin; for CI (combination index): with doxorubicin, 72 h, average over drug ratios at IC50
Experimental: The HeLa cell line was used to perform this assay. Doxorubicin (2 mg/mL, Teva Pharmaceuticals, Budapest, Hungary) was serially diluted in the horizontal direction, starting with 8.6 µM. The resistance modifier was subsequently diluted in the vertical direction, and the starting concentration was determined based on the IC50. The dilutions of doxorubicin were made in a horizontal direction in 100 µL, and the dilutions of the resistance modifiers occurred vertically in the microtiter plate in a 50 µL volume. The compounds and doxorubicin were diluted separately. […] Then, diluted compounds with a volume of 50 μL were added to each well to reach a final volume of 200 μL. The plates were incubated for 72 h at 37 °C in a CO2 incubator, and at the end of the incubation period, the cell growth was determined by the MTT staining method, as described earlier. Drug interactions were evaluated using CompuSyn software. Each dose-response curve (for individual agents as well as combinations) was fit to a linear model using the median effect equation in order to obtain the median effect value (corresponding to the IC50) and slope (m). The goodness-of-fit was assessed using the linear correlation coefficient, r, and only data from analysis with r > 0.90 are presented. The extent of the interaction between drugs was expressed using the combination index in which a CI value close to 1 indicates additivity, while CI < 1 is defined as synergy and CI > 1 as antagonism.

[5] = test system: HeLa, COLO 205, and COLO 320 cancer cells; test: Antiproliferative MTT assay, summary over the tested cell lines; assay type: cell-based; settings: Homo sapiens, 72 h, COLO 205, COLO 320, read-out: IC50 values, range over the cancer cell lines
Experimental: as §1
In the study, human colonic adenocarcinoma cell lines (doxorubicin-sensitive COLO 205 and multidrug resistant COLO 320 colonic adenocarcinoma cells), HeLa human cervix carcinoma cells and the MRC-5 non-cancerous human embryonic lung fibroblast cell line were used to determine the effect of the compounds on cell growth. The effects of increasing concentrations of compounds on cell growth were tested in 96-well flat-bottomed microtiter plates. […] The compounds were diluted in a volume of 100 μL of the medium. […] Cell growth was determined by measuring the optical density (OD) at 540/630 nm, with a Multiscan EX ELISA reader (Thermo Labsystems, Cheshire, WA, USA). […]

[6] = test system: COLO 320/MDR-LRP multidrug resistant colonic adenocarcinoma cells expressing P-gp; test: Antiproliferative MTT assay, COLO 320; settings: for IC50: read-out: IC50 (µM) ± SD COLO 320; for SI MRC-5/COLO 320: selectivity index: IC50 in non-tumour cells / IC50 in cancer cells
Experimental: as §1, §2

[7] = test system: superoxide anion generation; parameters: method as in PMID 27940118; settings: anti-inflammatory activity ref 16; cited from earlier work
[8] = Stability of the hemiacetal, 1H NMR measured again; assay type: physicochemical; settings: 1H NMR measured again one day later; two sets of signals approx. 1:0.6
Source text: Compound 2 (ensifolin B) has the molecular formula C25H24O4 compatible with the fragment ion in the HRESIMS at m/z 369.1497 [M − H2O − H]^− (calcd for 369.1491). […] The structure of the phenanthrene skeleton was assembled through 2D NMR analysis. It was concluded that the phenanthrene core of compound 2 is identical to sylvaticin A, a 9,10-dihydrophenanthrene recently described from Luzula sylvatica. However, NMR characteristics of the H2-11 oxymethylene in 2 are different compared to those of sylvaticin A, including its […] shifted carbon (δC 66.2 vs. 60.2) and magnetically inequivalent protons (δH 5.19 and 5.09, vs. δH 5.01, 2H, s). […] Similar to compound 1, ensifolin B (2) also has an asymmetric carbon atom (C-1′). The specific rotation value [α ]D25 of the compound was +2 (c 0.1, MeOH). When compound 2 was injected onto a chiral HPLC column, it eluted with two well-separated peaks with a peak ratio area of 1:1. […] Intermolecular hemiacetals are intrinsically unstable with respect to their parent alcohols and aldehydes. […] Considering that sylvaticin A and 4-hydroxybenzaldehyde, the minor compounds of the mixture were also isolated from other fractions (compound 16 and 18, respectively), it is unclear whether these phytochemicals originally presented in the harvested plant material or whether they are just by-products of the decomposition of compound 2.

HeLa cells [9] = test system: HeLa cells; parameters: method as in PMID 33064469; settings: HeLa ref 15; read-out: IC50 antiproliferative activity against HeLa cells; cited from earlier work
human neutrophils = test system: human neutrophils; parameters: method as in PMID 27940118; settings: fMLP/CB activation ref 16, read-out: IC50 elastase release; cited from earlier work
[10] = MTT, 72 h, four parallel measurements

Row | Compound | IC50 [1] [µM] | IC50 [2] [µM] | stability of initially pure compound [8] | IC50 ([1]; Homo sapiens, COLO 205, 72 h) [µM] | SI MRC-5/COLO 205 [1] | IC50 ([2]; Homo sapiens, HeLa) [µM] | SI MRC-5/HeLa [2] | IC50 ([3]; Homo sapiens, MRC5, 72 h) [µM] | Interaction (HeLa cells [4]) | IC50 [5] [µM] | IC50 ([6]; Homo sapiens, COLO 320, 72 h) [µM] | SI MRC-5/COLO 320 [6] | IC50 [7] [µM] | IC50 ([3]; 72 h) [µM] | CI (combination index) (HeLa cells [4]) | IC50 [6, 10] [µM] | activity relative to positive control cisplatin ([1]; COLO 205 cells) | IC50 (HeLa cells [9]) [µM] | IC50 (human neutrophils) [µM]
1 | C=Cc1c(C)cc(O)c2c1CCc1c-2ccc(O)c1C [Compound 5, 2,5-dihydroxy-1,7-dimethyl-8-vinyl-9,10-dihydrophenanthrene] | – | – | – | 31.2 ± 0.66 | 1.42 | 27.5 ± 1.19 | 1.61 | 44.3 ± 0.61 | very strong synergism (CI < 0.1: very strong synergism) | 25.2 to 31.2 | 25.2 ± 0.92 | 1.76 | – | – | – | – | – | – | –
2 | O=c1cc(-c2ccc(O)c(O)c2)oc2cc(O)cc(O)c12 [Compound 19, luteolin] | – | – | – | > 100 | – | > 100 | – | > 100 | – | – | > 100 | – | – | – | – | – | – | – | –
3 | C=Cc1c(C)c(O)cc2c1-c1ccc(O)c(C)c1CC2 [juncusol, reference compound] | – | – | – | – | – | – | – | – | – | – | – | – | 3.1 | – | – | – | – | – | –
4 | Cc1cc(O)c2c(c1C(O)COc1cc(-c3cc(=O)c4c(O)cc(O)cc4o3)ccc1O)CCc1c-2ccc(O)c1C (stereo not shown) [Compound 1, Ensifolin A] | 3.86 ± 0.08 | – | – | 3.9 | – | 8.25 ± 0.51 | 2.34 | 19.3 ± 0.54 | strong synergism (0.1 < CI < 0.3: strong synergism) | 3.9 to 12.7 | 12.71 ± 0.05 | 1.52 | – | – | 0.272 | – | more than ten-fold | – | –
5 | C=Cc1c(C)cc(O)c2c1CCc1c-2cc(-c2cc3c(c(C)c2O)CCc2c(C=C)c(C)cc(O)c2-3)c(O)c1C [Compound 10, Ensifolin J] | – | – | – | 44.5 ± 1.22 | 1.30 | 33.5 ± 1.89 | 1.72 | 57.8 ± 1.32 | synergism (0.3 < CI < 0.7: synergism) | – | 42.8 ± 1.28 | 1.35 | – | – | 0.454 | – | – | – | –
6 | COc1cccc2c1C(=O)c1c(O)c3c(c(O)c1C2=O)C[C@@](O)(C(=O)CO)C[C@@H]3O[C@H]1C[C@H](N)[C@H](O)[C@H](C)O1 [doxorubicin] | – | – | – | 1.36 ± 0.36 | – | 0.04 ± 0.004 | – | 0.53 ± 0.06 | – | – | 0.22 ± 0.004 | – | – | – | – | – | – | – | –
7 | O=Cc1ccc(O)cc1 [Compound 18, 4-hydroxybenzaldehyde] | – | – | – | > 100 | – | > 100 | – | > 100 | – | – | > 100 | – | – | – | – | – | – | – | –
8 | C=Cc1cc(C)cc2c1-c1ccc(O)c(C)c1C(O)C2 (stereo not shown) [Compound 3, 2,10-dihydroxy-1,7-dimethyl-5-vinyl-9,10-dihydrophenanthrene] | – | – | – | > 100 | – | > 100 | – | > 100 | synergism (0.3 < CI < 0.7: synergism) | – | > 100 | – | – | – | 0.580 | – | – | – | –
9 | C=Cc1cc(C)cc2c1-c1ccc(O)c(C)c1CC2 [Compound 14, 2-hydroxy-1,7-dimethyl-5-vinyl-9,10-dihydrophenanthrene] | – | – | – | 32.9 ± 0.59 | 1.85 | 58.1 ± 1.2 | 1.05 | 60.89 ± 0.25 | synergism (0.3 < CI < 0.7: synergism) | – | 52.4 ± 0.77 | 1.16 | – | – | 0.579 | – | – | – | –
10 | C=Cc1c(C)cc(O)c2c1CCc1c-2cc(-c2c(C)c(C=C)c3c(c2O)-c2ccc(O)c(C)c2CC3)c(O)c1C [Compound 12, Ensifolin L] | – | – | – | 26.9 ± 1.19 | 1.87 | 30.22 ± 0.21 | 1.67 | 50.4 ± 1.3 | strong synergism (0.1 < CI < 0.3: strong synergism) | – | 37.4 ± 2.13 | 1.35 | – | – | 0.120 | – | – | – | –
11 | C=Cc1c(CO)cc(O)c2c1CCc1c-2ccc(O)c1C [Compound 6, Ensifolin F] | – | – | – | > 100 | – | 74.3 ± 2.98 | >1.35 | > 100 | strong synergism (0.1 < CI < 0.3: strong synergism) | – | 93.71 ± 0.14 | >1.07 | – | – | 0.159 | – | – | – | –
12 | N.N.[Cl][Pt][Cl] [cisplatin, reference compound] | 41.7 ± 1.62 | 3.62 ± 0.16 | – | – | – | – | – | – | – | – | – | – | – | 2.36 ± 0.33 | – | – | – | – | –
13 | CC(=O)c1c(C)cc(O)c2c1CCc1c-2ccc(O)c1C [Compound 7, Ensifolin G] | – | – | – | > 100 | – | 75.6 ± 0.94 | >1.32 | > 100 | synergism (0.3 < CI < 0.7: synergism) | – | > 100 | – | – | – | 0.568 | – | – | – | –
14 | C=Cc1cc(C)cc2c1-c1ccc(O)c(COC)c1CC2 [Compound 4, Ensifolin D] | – | – | – | 65.6 ± 0.78 | >1.52 | 19.4 ± 0.33 | >5.15 | > 100 | synergism (0.3 < CI < 0.7: synergism) | – | 61.6 ± 9.95 | >1.62 | – | – | 0.643 | – | – | – | –
15 | C=Cc1c(C)cc(O)c2c1CCc1c-2cc(-c2c(O)c(C)c(C=C)c3ccc4c(C)c(O)ccc4c23)c(O)c1C [Compound 11, Ensifolin K] | – | – | – | 31.4 ± 0.72 | 1.06 | 29.5 ± 0.31 | 1.12 | 33.16 ± 0.05 | strong synergism (0.1 < CI < 0.3: strong synergism) | – | 37.8 ± 1.05 | 0.88 | – | – | 0.112 | – | – | – | –

Continued, in another order:

Row | IC50 [1] [µM] | IC50 [2] [µM] | stability of initially pure compound [8] | Compound | IC50 ([1]; Homo sapiens, COLO 205, 72 h) [µM] | SI MRC-5/COLO 205 [1] | IC50 ([2]; Homo sapiens, HeLa) [µM] | SI MRC-5/HeLa [2] | IC50 ([3]; Homo sapiens, MRC5, 72 h) [µM] | Interaction (HeLa cells [4]) | IC50 [5] [µM] | IC50 ([6]; Homo sapiens, COLO 320, 72 h) [µM] | SI MRC-5/COLO 320 [6] | IC50 [7] [µM] | IC50 ([3]; 72 h) [µM] | CI (combination index) (HeLa cells [4]) | IC50 [6, 10] [µM] | activity relative to positive control cisplatin ([1]; COLO 205 cells) | IC50 (HeLa cells [9]) [µM] | IC50 (human neutrophils) [µM]
16 | 56.7 ± 0.75 | 10.56 ± 0.09 | – | sylvaticin A [Compound 17] | – | >1.76 | – | >9.47 | – | strong synergism (0.1 < CI < 0.3: strong synergism) | – | – | >1.73 | – | > 100 | 0.279 | 57.7 ± 0.92 | – | – | –
17 | – | – | showed signs of decomposition | C=Cc1cc(C)cc2c1-c1ccc(O)c(COC(O)c3ccc(O)cc3)c1CC2 (stereo not shown) [Compound 2, Ensifolin B] | 45.6 ± 0.5 | 1.14 | 33.49 ± 0.29 | 1.55 | 51.87 ± 0.14 | synergism (0.3 < CI < 0.7: synergism) | – | 37.24 ± 0.11 | 1.39 | – | – | 0.584 | – | – | – | –
18 | 37.1 ± 0.57 | 6.67 ± 0.03 | – | juncuenin B [Compound 15] | – | 0.97 | – | 5.37 | – | slight synergism (0.7 < CI < 0.9: moderate to slight synergism) | – | – | 1.17 | 4.9 | 35.9 ± 1.23 | 0.864 | 30.5 ± 0.93 | – | 2.9 | 5.5
19 | 34.4 ± 0.57 | 6.65 ± 0.1 | – | C#Cc1c(C)c(O)cc2c1CCc1c-2ccc(O)c1C [Compound 16, juncatrin B] | – | 0.76 | – | 3.91 | – | synergism (0.3 < CI < 0.7: synergism) | – | – | 0.80 | – | 26 ± 0.85 | 0.682 | 32.5 ± 0.75 | – | – | –
